Experimental data from patent US20230117680A1, “CYCLOPHILIN D INHIBITORS AND USES THEREOF” (The Broad Institute, Inc., priority 2019, published 2023).
pIC50: −log10 of the molar value. “Also recorded” adds a separate entry of the source.

How the values were obtained:
[1] = molecular target: T1, NKTR (Homo sapiens, UniProt P30414); assay: chymotrypsin coupled PPIase assay, NKTR inhibition; assay type: biochemical; conditions: result in words
T1 sequence (P30414 1-1462): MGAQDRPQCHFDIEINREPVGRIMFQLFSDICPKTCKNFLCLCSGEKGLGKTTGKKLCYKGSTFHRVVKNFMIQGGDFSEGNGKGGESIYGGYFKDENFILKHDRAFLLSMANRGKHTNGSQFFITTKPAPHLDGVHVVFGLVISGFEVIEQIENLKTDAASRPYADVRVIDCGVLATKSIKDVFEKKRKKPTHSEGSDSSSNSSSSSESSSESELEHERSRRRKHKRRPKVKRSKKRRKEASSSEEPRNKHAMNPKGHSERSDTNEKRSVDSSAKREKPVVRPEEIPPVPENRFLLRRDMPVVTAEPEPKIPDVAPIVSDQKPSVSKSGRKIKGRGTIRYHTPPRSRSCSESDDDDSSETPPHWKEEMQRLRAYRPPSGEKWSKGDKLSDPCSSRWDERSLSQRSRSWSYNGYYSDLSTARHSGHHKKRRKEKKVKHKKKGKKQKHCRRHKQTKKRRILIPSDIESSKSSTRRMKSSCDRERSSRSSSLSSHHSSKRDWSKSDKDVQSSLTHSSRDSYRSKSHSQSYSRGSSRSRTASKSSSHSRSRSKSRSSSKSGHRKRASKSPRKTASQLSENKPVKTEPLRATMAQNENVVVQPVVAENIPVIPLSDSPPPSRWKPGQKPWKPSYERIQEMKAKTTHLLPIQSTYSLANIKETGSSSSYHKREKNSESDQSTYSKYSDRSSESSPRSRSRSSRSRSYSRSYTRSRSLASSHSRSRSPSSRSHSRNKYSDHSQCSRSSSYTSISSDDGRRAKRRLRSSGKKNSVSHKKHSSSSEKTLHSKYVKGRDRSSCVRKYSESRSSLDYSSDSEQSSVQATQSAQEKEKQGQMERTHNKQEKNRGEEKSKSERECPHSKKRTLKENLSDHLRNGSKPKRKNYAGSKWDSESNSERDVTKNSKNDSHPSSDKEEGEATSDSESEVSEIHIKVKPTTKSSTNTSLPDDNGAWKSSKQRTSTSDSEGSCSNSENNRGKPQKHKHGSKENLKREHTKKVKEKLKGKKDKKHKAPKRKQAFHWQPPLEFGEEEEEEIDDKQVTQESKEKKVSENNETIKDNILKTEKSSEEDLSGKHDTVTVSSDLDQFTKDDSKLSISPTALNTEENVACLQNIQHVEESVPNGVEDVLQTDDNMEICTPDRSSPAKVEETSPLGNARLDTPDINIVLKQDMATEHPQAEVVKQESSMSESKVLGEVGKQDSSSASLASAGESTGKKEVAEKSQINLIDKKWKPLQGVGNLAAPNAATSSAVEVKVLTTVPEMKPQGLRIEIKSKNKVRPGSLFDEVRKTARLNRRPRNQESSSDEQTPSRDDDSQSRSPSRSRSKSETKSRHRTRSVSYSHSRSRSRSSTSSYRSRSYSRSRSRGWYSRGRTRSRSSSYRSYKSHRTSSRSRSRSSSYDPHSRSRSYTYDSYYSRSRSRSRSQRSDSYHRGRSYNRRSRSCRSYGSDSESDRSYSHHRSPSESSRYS
Method: (§1) Following the synthesis of the indicated library members, in vitro inhibition (IC50) assays of these hits were conducted to obtain IC50 inhibitory data. For the IC50 assays, a chymotrypsin coupled PPIase assay using Suc-AAPF-AMC as the peptide substrate was used, whereby isomerization of a peptide substrate Suc-AAPF-AMC from the cis to trans conformation allowed for proteolysis via excess a-chymotrypsin, releasing the C-terminal coumarin fluorophore. […] Other non-inhibitor library members were also checked for binding via SPR, but produced the same profile as the prolyl isomerase assay.
(§2) Subsequently, to determine if the compounds could both access the S2 pocket and display CypD specificity, JOMBtrans and compound 49 were screened against the 10 other cyclophilins with reported prolyl isomerase activity. […] Co-crystal structures of JOMBtrans and 49 were solved with CypD. […] Three further H-bonds with the macrocycle's backbone and CypD were observed along with a cation-n interaction. […] The benzyl group on the piperidine ring altered the conformation of the macrocycle to open up two new hydrogen bonding interactions with CypD. […] This improvement in specificity compared to JOMBtrans signified that more CypD specific compounds can be garnered by derivatization into the S2 pocket.

[2] = molecular target: T2, CypG (Homo sapiens, UniProt Q13427); assay: chymotrypsin coupled PPIase assay, CypG inhibition; assay type: biochemical; conditions: result in words
T2 sequence (Q13427 1-754): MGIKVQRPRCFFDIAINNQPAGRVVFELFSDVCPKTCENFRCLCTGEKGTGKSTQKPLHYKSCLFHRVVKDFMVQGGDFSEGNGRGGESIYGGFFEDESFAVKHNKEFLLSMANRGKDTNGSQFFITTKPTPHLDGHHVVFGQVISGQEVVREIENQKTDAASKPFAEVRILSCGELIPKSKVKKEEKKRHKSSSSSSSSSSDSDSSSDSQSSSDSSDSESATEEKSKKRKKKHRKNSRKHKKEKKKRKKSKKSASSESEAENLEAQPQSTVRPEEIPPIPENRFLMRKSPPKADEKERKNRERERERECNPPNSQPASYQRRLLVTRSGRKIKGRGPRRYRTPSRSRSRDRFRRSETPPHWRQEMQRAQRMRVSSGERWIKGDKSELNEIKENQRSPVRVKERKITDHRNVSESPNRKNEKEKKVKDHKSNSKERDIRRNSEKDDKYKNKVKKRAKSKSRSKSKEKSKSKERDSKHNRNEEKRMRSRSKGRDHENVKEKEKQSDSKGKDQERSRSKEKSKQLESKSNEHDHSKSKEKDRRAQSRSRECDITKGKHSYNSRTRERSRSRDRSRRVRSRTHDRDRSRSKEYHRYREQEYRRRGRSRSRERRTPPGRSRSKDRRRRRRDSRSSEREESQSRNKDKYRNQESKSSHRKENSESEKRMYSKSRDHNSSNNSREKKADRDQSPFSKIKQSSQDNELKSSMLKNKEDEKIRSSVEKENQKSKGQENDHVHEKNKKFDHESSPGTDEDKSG
Method: as §1, §2

[3] = molecular target: CypH (Homo sapiens, UniProt O43447); assay: chymotrypsin coupled PPIase assay, CypH inhibition; assay type: biochemical; conditions: result in words
CypH, sequence (O43447 whole entry): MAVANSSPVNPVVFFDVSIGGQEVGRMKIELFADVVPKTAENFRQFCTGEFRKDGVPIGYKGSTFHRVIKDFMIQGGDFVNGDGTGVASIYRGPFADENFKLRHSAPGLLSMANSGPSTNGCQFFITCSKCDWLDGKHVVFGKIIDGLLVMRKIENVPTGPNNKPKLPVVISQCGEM
Method: as §1, §2

[4] = molecular target: T3, PPWD1 (Homo sapiens, UniProt Q96BP3); assay: chymotrypsin coupled PPIase assay, PPWD1 inhibition; assay type: biochemical; conditions: result in words
T3 sequence (Q96BP3 1-646): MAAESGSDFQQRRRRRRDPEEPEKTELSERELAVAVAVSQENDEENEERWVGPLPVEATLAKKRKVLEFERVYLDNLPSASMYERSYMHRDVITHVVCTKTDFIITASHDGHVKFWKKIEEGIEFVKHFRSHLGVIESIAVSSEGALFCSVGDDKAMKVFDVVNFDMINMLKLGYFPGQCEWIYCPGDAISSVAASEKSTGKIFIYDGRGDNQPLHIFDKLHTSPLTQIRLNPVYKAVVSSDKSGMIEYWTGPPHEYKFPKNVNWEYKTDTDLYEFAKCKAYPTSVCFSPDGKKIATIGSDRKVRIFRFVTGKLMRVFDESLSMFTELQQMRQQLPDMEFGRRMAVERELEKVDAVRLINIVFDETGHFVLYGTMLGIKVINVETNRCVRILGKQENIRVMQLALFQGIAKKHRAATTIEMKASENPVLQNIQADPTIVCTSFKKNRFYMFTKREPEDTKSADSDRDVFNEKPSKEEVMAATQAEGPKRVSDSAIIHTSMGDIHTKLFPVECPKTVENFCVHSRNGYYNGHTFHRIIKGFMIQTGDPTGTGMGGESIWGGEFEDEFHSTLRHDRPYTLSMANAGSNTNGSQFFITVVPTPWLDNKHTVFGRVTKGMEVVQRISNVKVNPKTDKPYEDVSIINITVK
Method: as §1, §2

[5] = test system: 10 other cyclophilins with reported prolyl isomerase activity; assay: cyclophilin specificity screen: CypD against the other cyclophilins; assay type: biochemical
From the text: (§3) The selectivity of a compound described herein in inhibiting the activity of a first cyclophilin (e.g., CypD) over a second cyclophilin may be measured by the quotient of the IC50 value of the compound in inhibiting the activity of the second cyclophilin over the IC50 value of the compound in inhibiting the activity of the first cyclophilin. The selectivity of a compound described herein in modulating the activity of a first cyclophilin over a second cyclophilin may also be measured by the quotient of the Kd value of an adduct of the compound and the second cyclophilin over the Kd value of an adduct of the compound and the first cyclophilin (e.g., CypD). […] In certain embodiments, selectivity for inhibiting a first cyclophilin over other cyclophilins is measured by Surface Plasmon Resonance (SPR) assays as disclosed in the Examples.
(§4) Following the synthesis of the indicated library members, in vitro inhibition (IC50) assays of these hits were conducted to obtain IC50 inhibitory data. For the IC50 assays, a chymotrypsin coupled PPIase assay using Suc-AAPF-AMC as the peptide substrate was used, whereby isomerization of a peptide substrate Suc-AAPF-AMC from the cis to trans conformation allowed for proteolysis via excess a-chymotrypsin, releasing the C-terminal coumarin fluorophore.
Subsequently, to determine if the compounds could both access the S2 pocket and display CypD specificity, JOMBtrans and compound 49 were screened against the 10 other cyclophilins with reported prolyl isomerase activity. […] Co-crystal structures of JOMBtrans and 49 were solved with CypD.

[6] = test system: mPTP in isolated mice kidney mitochondria; assay: inhibition of mPTP in isolated mitochondria (tolerated Ca2+ pulses before full mPTP opening); conditions: result in words
Method: In isolated mice kidney mitochondria, the maximum number of Ca^2+ pulses that could be tolerated before full mPTP opening was measured (see FIG. 24).

[7] = molecular target: CypD (Homo sapiens, UniProt P30405); assay: chymotrypsin coupled PPIase assay (Suc-AAPF-AMC substrate), CypD inhibition; assay type: biochemical
CypD, sequence (P30405 30-207): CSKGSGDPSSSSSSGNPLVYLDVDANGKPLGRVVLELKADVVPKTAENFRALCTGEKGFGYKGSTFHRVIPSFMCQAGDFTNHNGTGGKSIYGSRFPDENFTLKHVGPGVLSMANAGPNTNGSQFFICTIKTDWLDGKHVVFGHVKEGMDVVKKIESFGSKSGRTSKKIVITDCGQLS
From the text: as §3, §4

SMILES: NCCOCCNC(=O)[C@@H]1CCNC(=O)/C=C/C(=O)N2CCC[C@](Cc3ccccc3)(C2)C(=O)N[C@@H](Cc2ccc(C(=O)c3ccccc3)cc2)C(=O)NCc2ccccc2CC(=O)N1 [A-1]
- inhibition of NKTR [1]: abolished inhibition
- inhibition of CypG [2]: abolished inhibition
- inhibition of CypH [3]: abolished inhibition
- inhibition of PPWD1 [4]: abolished inhibition

SMILES: NCCOCCNC(=O)[C@@H]1CCNC(=O)/C=C/C(=O)N2CCC[C@](Cc3ccccc3)(C2)C(=O)N[C@@H](Cc2ccc(-c3ccc(C(=O)O)cc3)cc2)C(=O)NCc2ccccc2CC(=O)N1 [A-54]
- specificity / selectivity profile for CypD (in words) ([5]; result in words): best specificity profiles; also recorded: preference for CypD

SMILES: NCCOCCNC(=O)[C@@H]1CCNC(=O)/C=C/C(=O)N2CCC[C@](Cc3ccccc3)(C2)C(=O)N[C@@H](Cc2ccc(-c3ccc(CC(=O)O)cc3)cc2)C(=O)NCc2ccccc2CC(=O)N1 [A-63]
- specificity / selectivity profile for CypD (in words) ([5]; result in words): preference for CypD

SMILES: CC(=O)c1ccc(-c2ccc(C[C@@H]3NC(=O)[C@]4(Cc5ccccc5)CCCN(C4)C(=O)/C=C/C(=O)NCC[C@@H](C(N)=O)NC(=O)Cc4ccccc4CNC3=O)cc2)cc1 [A-22b]
- number of tolerated Ca2+ pulses before full mPTP opening [6]: extended pulse number

SMILES: NCCOCCNC(=O)[C@@H]1CCNC(=O)/C=C/C(=O)N2CCC[C@](Cc3ccccc3)(C2)C(=O)N[C@@H](Cc2ccc(-c3ccc(/C=C/C(=O)O)cc3)cc2)C(=O)NCc2ccccc2CC(=O)N1 [A-82]
- specificity / selectivity profile for CypD (in words) ([5]; result in words): preference for CypD

SMILES: NCCOCCNC(=O)[C@@H]1CCNC(=O)/C=C/C(=O)N2CCC[C@](Cc3ccccc3)(C2)C(=O)N[C@@H](Cc2ccco2)C(=O)NCc2ccccc2CC(=O)N1 [compound 49]
- specificity for CypD compared to any other cyclophilins [5]: approximately 10 fold
- decrease in inhibition against other family members compared to CypD ([5]; result in words): at most a ten-fold decrease
- specificity / selectivity profile for CypD (in words) ([5]; result in words): low specificity; also recorded: very promiscuous cyclophilin inhibition
- increase in potency compared to JOMBtrans [7]: 75 fold
- pIC50 ([7]; read-out: potency for CypD): 6.70
- potency for CypD (in words) ([7]; result in words): low potency

SMILES: CC(C)(C)c1ccc(C[C@@H]2NC(=O)[C@]3(Cc4ccccc4)CCCN(C3)C(=O)/C=C/C(=O)NCC[C@@H](C(=O)NCCOCCN)NC(=O)Cc3ccccc3CNC2=O)cc1 [A-9]
- inhibition of NKTR [1]: abolished inhibition
- inhibition of CypG [2]: abolished inhibition
- inhibition of CypH [3]: abolished inhibition
- inhibition of PPWD1 [4]: abolished inhibition

SMILES: Cc1cc(C(=O)O)ccc1-c1ccc(C[C@@H]2NC(=O)[C@]3(Cc4ccccc4)CCCN(C3)C(=O)/C=C/C(=O)NCC[C@@H](C(=O)NCCOCCN)NC(=O)Cc3ccccc3CNC2=O)cc1 [A-57]
- specificity / selectivity profile for CypD (in words) ([5]; result in words): best specificity profiles; also recorded: preference for CypD

SMILES: NC(=O)[C@@H]1CCNC(=O)/C=C/C(=O)N2CCC[C@](Cc3ccccc3)(C2)C(=O)N[C@@H](Cc2ccc(-c3ccc(CCC(=O)O)cc3)cc2)C(=O)NCc2ccccc2CC(=O)N1 [A-81b]
- number of tolerated Ca2+ pulses before full mPTP opening [6]: extended pulse number; also recorded: almost as potent as CsA
